≈ marks a conversion by molar mass, not a printed value.
tested on: Mycobacterium tuberculosis; assay: (§1) Antimycobacterial activity against Mycobacterium tuberculosis H37Rv infected in Balb/c mouse assessed as bacterial burden in lungs at 30 mg/kg, po administered daily through gavage starting on day 2 post infection for 4 days per week for 2 weeks as vitamin E/water formulation measured on day 12 post infection (reference value: 7.6 log10CFU); assay type: functional, Lung; conditions: not given

Row | Compound | Activity [log10CFU]
1 | Cn1c(NCCc2ccc(Oc3ccc(Cl)cc3)cc2)nc2cc(Cl)ccc2c1=O | 7.5

tested on: not listed separately; assay: Bioavailability in Swiss mouse at 3 mg/kg, iv administered as single bolus dose in NMP/Solutol HS15/PBS solution after 24 hrs; assay type: ADME, organism-based; conditions: in vivo

Row | Compound | bioavailability [%]
2 | Cn1c(NCCc2ccc(Oc3ccc(Cl)cc3)cc2)nc2cc(Cl)ccc2c1=O | 90

tested on: Mycobacterium tuberculosis; assay: Ratio of MIC80 for Mycobacterium tuberculosis H37Rv in presence of 25% human serum to MIC80 for Mycobacterium tuberculosis H37Rv; assay type: functional; conditions: not given

Row | Compound | Ratio
3 | Cn1c(NCCc2ccccc2)nc2cc(Cl)ccc2c1=O | 8
4 | Cn1c(NCCc2ccc(-c3ccccc3)cc2)nc2cc(Cl)ccc2c1=O | 8
5 | Cn1c(NCCc2ccc(OC(F)(F)F)cc2)nc2cc(Cl)ccc2c1=O | 8
6 | Cn1c(NCCc2ccc(Oc3ccc(Cl)cc3)cc2)nc2cc(Cl)ccc2c1=O | 8

tested on: not listed separately; assay: Lipophilicity, log P of compound; conditions: octanol/water

Row | Compound | logP
7 | Cn1c(NCCc2ccccc2)nc2cc(Cl)ccc2c1=O | 4.24
8 | Cn1c(NCCc2ccc(-c3ccccc3)cc2)nc2cc(Cl)ccc2c1=O | 5.27
9 | Cn1c(NCCc2ccc(OC(F)(F)F)cc2)nc2cc(Cl)ccc2c1=O | 4.95
10 | Cn1c(NCCc2ccc(Oc3ccc(Cl)cc3)cc2)nc2cc(Cl)ccc2c1=O | 5.66

tested on: Mycobacterium tuberculosis; assay: as §1, with “600” for “30”, “lipidic/water” for “vitamin E/water”, “7.2” for “7.6”; assay type: functional, Lung; conditions: not given

Row | Compound | Activity [log10CFU]
11 | Cn1c(NCCc2ccc(Oc3ccc(Cl)cc3)cc2)nc2cc(Cl)ccc2c1=O | 6.3

tested on: not listed separately; assay: Permeability in human Caco2 cells; conditions: caco-2

Row | Compound | permeability
12 | Cn1c(NCCc2ccccc2)nc2cc(Cl)ccc2c1=O | Permeable
13 | Cn1c(NCCc2ccc(-c3ccccc3)cc2)nc2cc(Cl)ccc2c1=O | Permeable
14 | Cn1c(NCCc2ccc(OC(F)(F)F)cc2)nc2cc(Cl)ccc2c1=O | Permeable
15 | Cn1c(NCCc2ccc(Oc3ccc(Cl)cc3)cc2)nc2cc(Cl)ccc2c1=O | Permeable

target: T1, Cytochrome P450 3A4 (Homo sapiens, UniProt P08684); assay: Inhibition of CYP3A4 in human liver microsomes assessed as 6-beta-hydroxytestosterone metabolite formation using testosterone as substrate incubated for 30 mins by HPLC-MS method; conditions: not given
T1 sequence (P08684 whole entry): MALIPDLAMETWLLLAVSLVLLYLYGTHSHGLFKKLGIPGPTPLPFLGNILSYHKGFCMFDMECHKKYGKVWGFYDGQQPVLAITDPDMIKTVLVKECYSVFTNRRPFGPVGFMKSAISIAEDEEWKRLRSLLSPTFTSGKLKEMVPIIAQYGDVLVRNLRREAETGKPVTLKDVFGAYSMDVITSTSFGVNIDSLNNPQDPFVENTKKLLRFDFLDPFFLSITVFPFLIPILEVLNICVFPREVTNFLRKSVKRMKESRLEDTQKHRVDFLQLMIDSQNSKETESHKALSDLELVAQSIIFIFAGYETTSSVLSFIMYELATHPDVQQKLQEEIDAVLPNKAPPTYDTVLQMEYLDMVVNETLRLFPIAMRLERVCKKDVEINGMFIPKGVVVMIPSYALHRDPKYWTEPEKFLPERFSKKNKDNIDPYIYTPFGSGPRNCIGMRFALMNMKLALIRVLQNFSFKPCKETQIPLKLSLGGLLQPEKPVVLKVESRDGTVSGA

Row | Compound | IC50 [µM]
16 | Cn1c(NCCc2ccccc2)nc2cc(Cl)ccc2c1=O | 18
17 | Cn1c(NCCc2ccc(-c3ccccc3)cc2)nc2cc(Cl)ccc2c1=O | > 30
18 | Cn1c(NCCc2ccc(OC(F)(F)F)cc2)nc2cc(Cl)ccc2c1=O | > 30
19 | Cn1c(NCCc2ccc(Oc3ccc(Cl)cc3)cc2)nc2cc(Cl)ccc2c1=O | 29

tested on: Mycobacterium tuberculosis; assay: as §1, with “100” for “30”; assay type: functional, Lung; conditions: not given

Row | Compound | Activity [log10CFU]
20 | Cn1c(NCCc2ccc(Oc3ccc(Cl)cc3)cc2)nc2cc(Cl)ccc2c1=O | 7.1

tested on: Mycobacterium tuberculosis; assay: Antimycobacterial activity against Mycobacterium tuberculosis H37Rv incubated for 5 days by Bactiter-Glo assay; assay type: functional; conditions: 120 h

Row | Compound | MIC80 [µM]
21 | Cn1c(NCCc2ccccc2)nc2cc(Cl)ccc2c1=O | 0.06 (≈ 0.0188 µg/mL)
22 | Cn1c(NCCc2ccc(-c3ccccc3)cc2)nc2cc(Cl)ccc2c1=O | 0.008 (≈ 0.00312 µg/mL)
23 | Cn1c(NCCc2ccc(OC(F)(F)F)cc2)nc2cc(Cl)ccc2c1=O | 0.07 (≈ 0.0278 µg/mL)
24 | Cn1c(NCCc2ccc(Oc3ccc(Cl)cc3)cc2)nc2cc(Cl)ccc2c1=O | 0.036 (≈ 0.0159 µg/mL)

tested on: Mycobacterium tuberculosis; assay: Antimycobacterial activity against Mycobacterium tuberculosis H37Rv incubated for 5 days in presence of 25% mouse serum by Bactiter-Glo assay; assay type: functional; conditions: 120 h

Row | Compound | MIC80 [µM]
25 | Cn1c(NCCc2ccc(Oc3ccc(Cl)cc3)cc2)nc2cc(Cl)ccc2c1=O | 0.42

tested on: Mycobacterium tuberculosis; assay: as §1, with “300” for “30”; assay type: functional, Lung; conditions: not given

Row | Compound | Activity [log10CFU]
26 | Cn1c(NCCc2ccc(Oc3ccc(Cl)cc3)cc2)nc2cc(Cl)ccc2c1=O | 7

tested on: Mycobacterium tuberculosis; assay: Antimycobacterial activity against GFP-tagged Mycobacterium tuberculosis H37Rv infected in mouse RAW264.7 cells incubated for 4 days by Mask blue/Hoechst/FITC staining based fluorescence microscopic analysis; assay type: functional; conditions: 96 h

Row | Compound | MIC80 [µM]
27 | Cn1c(NCCc2ccc(-c3ccccc3)cc2)nc2cc(Cl)ccc2c1=O | 0.164 (≈ 0.0639 µg/mL)
28 | Cn1c(NCCc2ccc(Oc3ccc(Cl)cc3)cc2)nc2cc(Cl)ccc2c1=O | 0.133 (≈ 0.0586 µg/mL)

tested on: not listed separately; assay: Time at which plasma concentration stays above invitro MIC80 in presence of mouse serum in Balb/c mouse infected with Mycobacterium tuberculosis H37Rv at 100 mg/kg, po administered through gavage as lipidic/water formulation; assay type: ADME, organism-based; conditions: in vivo

Row | Compound | Time [h]
29 | Cn1c(NCCc2ccc(Oc3ccc(Cl)cc3)cc2)nc2cc(Cl)ccc2c1=O | > 96

tested on: Mycobacterium tuberculosis; assay: Antimycobacterial activity against Mycobacterium tuberculosis H37Rv incubated for 5 days in presence of 25% human serum by Bactiter-Glo assay; assay type: functional; conditions: 120 h

Row | Compound | MIC80 [µM]
30 | Cn1c(NCCc2ccccc2)nc2cc(Cl)ccc2c1=O | 2.79
31 | Cn1c(NCCc2ccc(-c3ccccc3)cc2)nc2cc(Cl)ccc2c1=O | 0.87
32 | Cn1c(NCCc2ccc(OC(F)(F)F)cc2)nc2cc(Cl)ccc2c1=O | 2.33
33 | Cn1c(NCCc2ccc(Oc3ccc(Cl)cc3)cc2)nc2cc(Cl)ccc2c1=O | 1.9

tested on: Mycobacterium tuberculosis; assay: Antimycobacterial activity against Mycobacterium tuberculosis H37Rv infected in po dosed Balb/c mouse assessed as log10 reduction in CFU in lungs administered daily through gavage starting on day 2 post infection for 4 days per week for 2 weeks as lipidic/water formulation measured on day 12 post infection; assay type: functional; conditions: read-out: MED

Row | Compound | minimal effective dose [mg/kg]
34 | Cn1c(NCCc2ccc(Oc3ccc(Cl)cc3)cc2)nc2cc(Cl)ccc2c1=O | 600

tested on: not listed separately; assay: Aqueous equilibrium solubility of compound in pH 7.4 solution at 20 degC; conditions: aqueous pH 7.4 solution

Row | Compound | solubility thermodynamic [µg/mL]
35 | Cn1c(NCCc2ccccc2)nc2cc(Cl)ccc2c1=O | < 1
36 | Cn1c(NCCc2ccc(-c3ccccc3)cc2)nc2cc(Cl)ccc2c1=O | < 1
37 | Cn1c(NCCc2ccc(OC(F)(F)F)cc2)nc2cc(Cl)ccc2c1=O | < 1
38 | Cn1c(NCCc2ccc(Oc3ccc(Cl)cc3)cc2)nc2cc(Cl)ccc2c1=O | < 1

tested on: not listed separately; assay: Protein binding in Swiss mouse plasma at 1 to 10 uM after 4 hrs by LC-MS/MS analysis; assay type: ADME, cell-free; conditions: read-out: PPB (converted)

Row | Compound | fraction unbound at 4 h
39 | Cn1c(NCCc2ccc(Oc3ccc(Cl)cc3)cc2)nc2cc(Cl)ccc2c1=O | 0.001

tested on: not listed separately; assay: Cytotoxicity against human HepG2 cells assessed as reduction in cell viability after 40 hrs by Celltiter-Glo assay; conditions: HepG2 cells

Row | Compound | IC50 at 40 h [µM]
40 | Cn1c(NCCc2ccccc2)nc2cc(Cl)ccc2c1=O | 15.2
41 | Cn1c(NCCc2ccc(-c3ccccc3)cc2)nc2cc(Cl)ccc2c1=O | 6.5
42 | Cn1c(NCCc2ccc(OC(F)(F)F)cc2)nc2cc(Cl)ccc2c1=O | 9.9
43 | Cn1c(NCCc2ccc(Oc3ccc(Cl)cc3)cc2)nc2cc(Cl)ccc2c1=O | 10.9

tested on: not listed separately; assay: Time at which lung concentration stays above invitro MIC80 in presence of mouse serum in Balb/c mouse infected with Mycobacterium tuberculosis H37Rv at 100 mg/kg, po administered through gavage as lipidic/water formulation; assay type: ADME, organism-based; conditions: in vivo

Row | Compound | Time [h]
44 | Cn1c(NCCc2ccc(Oc3ccc(Cl)cc3)cc2)nc2cc(Cl)ccc2c1=O | > 96

tested on: not listed separately; assay: AUC in Balb/c mouse plasma infected with Mycobacterium tuberculosis H37Rv at 10 to 100 mg/kg, po administered through gavage as lipidic/water formulation; assay type: ADME, organism-based; conditions: not given

Row | Compound | AUC [ng·h/mL]
45 | Cn1c(NCCc2ccc(Oc3ccc(Cl)cc3)cc2)nc2cc(Cl)ccc2c1=O | 21000

target: T1, Cytochrome P450 3A4; assay: Inhibition of CYP3A4 in human liver microsomes assessed as 1'-hydroxymidazolam metabolite formation using midazolam as substrate incubated for 10 mins by HPLC-MS method; conditions: not given

Row | Compound | IC50 [µM]
46 | Cn1c(NCCc2ccccc2)nc2cc(Cl)ccc2c1=O | 11
47 | Cn1c(NCCc2ccc(-c3ccccc3)cc2)nc2cc(Cl)ccc2c1=O | > 30
48 | Cn1c(NCCc2ccc(OC(F)(F)F)cc2)nc2cc(Cl)ccc2c1=O | 4
49 | Cn1c(NCCc2ccc(Oc3ccc(Cl)cc3)cc2)nc2cc(Cl)ccc2c1=O | 14

tested on: not listed separately; assay: Protein binding in human plasma at 1 to 10 uM after 4 hrs by LC-MS/MS analysis; assay type: ADME, cell-free; conditions: read-out: PPB (converted)

Row | Compound | fraction unbound at 4 h
50 | Cn1c(NCCc2ccc(Oc3ccc(Cl)cc3)cc2)nc2cc(Cl)ccc2c1=O | 0.001

tested on: not listed separately; assay: Aqueous equilibrium solubility of compound in pH 1 solution at 20 degC; conditions: aqueous pH 1 solution

Row | Compound | solubility thermodynamic [µg/mL]
51 | Cn1c(NCCc2ccccc2)nc2cc(Cl)ccc2c1=O | 180 (≈ 574 µM)
52 | Cn1c(NCCc2ccc(-c3ccccc3)cc2)nc2cc(Cl)ccc2c1=O | 5 (≈ 12.8 µM)
53 | Cn1c(NCCc2ccc(OC(F)(F)F)cc2)nc2cc(Cl)ccc2c1=O | 43 (≈ 108 µM)
54 | Cn1c(NCCc2ccc(Oc3ccc(Cl)cc3)cc2)nc2cc(Cl)ccc2c1=O | < 1

Reference: ChEMBL document CHEMBL3853353, “Identification and optimization of a new series of anti-tubercular quinazolinones” (Bioorg Med Chem Lett, 2016)
